# Like-named read-outs stand apart in the source and are kept apart here.
# Columns and labels:
# [1] = tested on: UACC-257
# [2] = tested on: NCI/ADR-RES; assay: cells; conditions: Homo sapiens
# [3] = tested on: TK-10
# [4] = tested on: NCI-H522; assay: cells; conditions: Homo sapiens
# [5] = tested on: NCI-H460; assay: cells; conditions: Homo sapiens
# [6] = tested on: OVCAR-4
# [7] = tested on: U251
# [8] = tested on: BT-549; assay: cells; conditions: Homo sapiens
# [9] = tested on: NCI-H460
# [10] = tested on: NCI-H322M; conditions: NCI-H322M
# [11] = tested on: OVCAR-5
# [12] = tested on: SF-295; assay: cells; conditions: Homo sapiens
# [13] = tested on: OVCAR-8; assay: cells; conditions: Homo sapiens
# [14] = tested on: SNB-19; assay: cells; conditions: Homo sapiens
# [15] = tested on: CAKI-1
# [16] = tested on: LOX IMVI; assay: cells; conditions: Homo sapiens
# [17] = tested on: UACC-257; assay: cells; conditions: Homo sapiens
# [18] = tested on: ACHN
# [19] = tested on: MDA-MB-231/ATCC; assay: cells; conditions: Homo sapiens
# [20] = tested on: EKVX
# [21] = tested on: SNB-75
# [22] = tested on: NCI/ADR-RES; conditions: NCI/ADR-RES
# [23] = tested on: SN12C
# [24] = tested on: COLO 205
# [25] = tested on: SK-MEL-5; assay: cells; conditions: Homo sapiens
structure (smiles),measurement,setting,value
"CNC(=O)NC[C@H]1O[C@@H](n2cnc3c(NC(=O)Nc4ccccc4)ncnc32)[C@H](O[Si](C)(C)C(C)(C)C)[C@@H]1CC(=O)N(C)OC [Compound 13, 2′-O-(tert-Butyldimethylsilyl)-3′,5′-dideoxy-3′-[(N-methoxy-N-methylcarboxamido)methyl]-5′-[(N-methylcarbamoyl)amino]-N^6-(N-phenylcarbamoyl)adenosine]",TGI,[1],>1.00E−4 Molar
same,Percent Growth,[1]; Log10 Concentration −4.0,22%
same,Percent Growth,[1]; Log10 Concentration −5.0,65%
same,Percent Growth,[1]; Log10 Concentration −6.0,102%
same,Percent Growth,[1]; Log10 Concentration −7.0,103%
same,Percent Growth,[1]; Log10 Concentration −8.0,95%
same,GI50,[2],> 100 µM
same,CC50,[2]; read-out: LC50,> 100 µM
same,TGI,[3],>1.00E−4 Molar
same,Percent Growth,[3]; Log10 Concentration −4.0,17%
same,Percent Growth,[3]; Log10 Concentration −5.0,65%
same,Percent Growth,[3]; Log10 Concentration −6.0,104%
same,Percent Growth,[3]; Log10 Concentration −7.0,106%
same,Percent Growth,[3]; Log10 Concentration −8.0,99%
same,GI50,[4]; NCI-H522,11.1 µM
same,CC50,"[4]; NCI-H522, read-out: LC50",> 100 µM
same,GI50,[5]; NCI-H460,7.49 µM
same,CC50,"[5]; NCI-H460, read-out: LC50",> 100 µM
same,TGI,[6],>1.00E−4 Molar
same,Percent Growth,[6]; Log10 Concentration −4.0,46%
same,Percent Growth,[6]; Log10 Concentration −5.0,60%
same,Percent Growth,[6]; Log10 Concentration −6.0,96%
same,Percent Growth,[6]; Log10 Concentration −7.0,100%
same,Percent Growth,[6]; Log10 Concentration −8.0,100%
same,TGI,[7],>1.00E−4 Molar
same,Percent Growth,[7]; Log10 Concentration −4.0,25%
same,Percent Growth,[7]; Log10 Concentration −5.0,37%
same,Percent Growth,[7]; Log10 Concentration −6.0,90%
same,Percent Growth,[7]; Log10 Concentration −7.0,101%
same,Percent Growth,[7]; Log10 Concentration −8.0,97%
same,GI50,[8]; BT-549,29 µM
same,CC50,"[8]; BT-549, read-out: LC50",> 100 µM
same,TGI,[9],>1.00E−4 Molar
same,Percent Growth,[9]; Log10 Concentration −4.0,25%
same,Percent Growth,[9]; Log10 Concentration −5.0,44%
same,Percent Growth,[9]; Log10 Concentration −6.0,90%
same,Percent Growth,[9]; Log10 Concentration −7.0,93%
same,Percent Growth,[9]; Log10 Concentration −8.0,96%
same,TGI,[10],>1.00E−4 Molar
same,Percent Growth,[10]; Log10 Concentration −4.0,73%
same,Percent Growth,[10]; Log10 Concentration −5.0,90%
same,Percent Growth,[10]; Log10 Concentration −6.0,102%
same,Percent Growth,[10]; Log10 Concentration −7.0,98%
same,Percent Growth,[10]; Log10 Concentration −8.0,97%
same,TGI,[11],>1.00E−4 Molar
same,Percent Growth,[11]; Log10 Concentration −4.0,35%
same,Percent Growth,[11]; Log10 Concentration −5.0,71%
same,Percent Growth,[11]; Log10 Concentration −6.0,92%
same,Percent Growth,[11]; Log10 Concentration −7.0,98%
same,Percent Growth,[11]; Log10 Concentration −8.0,99%
same,GI50,[12]; SF-295,9.09 µM
same,CC50,"[12]; SF-295, read-out: LC50",> 100 µM
same,GI50,[13]; OVCAR-8,9.02 µM
same,CC50,"[13]; OVCAR-8, read-out: LC50",> 100 µM
same,GI50,[14]; SNB-19,> 100 µM
same,CC50,"[14]; SNB-19, read-out: LC50",> 100 µM
same,TGI,[15],>1.00E−4 Molar
same,Percent Growth,[15]; Log10 Concentration −4.0,47%
same,Percent Growth,[15]; Log10 Concentration −5.0,57%
same,Percent Growth,[15]; Log10 Concentration −6.0,76%
same,Percent Growth,[15]; Log10 Concentration −7.0,72%
same,Percent Growth,[15]; Log10 Concentration −8.0,85%
same,GI50,[16],7.3 µM
same,CC50,[16]; read-out: LC50,> 100 µM
same,GI50,[17]; UACC-257,22.6 µM
same,CC50,"[17]; UACC-257, read-out: LC50",> 100 µM
same,TGI,[18],>1.00E−4 Molar
same,Percent Growth,[18]; Log10 Concentration −4.0,23%
same,Percent Growth,[18]; Log10 Concentration −5.0,55%
same,Percent Growth,[18]; Log10 Concentration −6.0,95%
same,Percent Growth,[18]; Log10 Concentration −7.0,102%
same,Percent Growth,[18]; Log10 Concentration −8.0,107%
same,GI50,[19]; MDA-MB-231,12.3 µM
same,CC50,"[19]; MDA-MB-231, read-out: LC50",> 100 µM
same,TGI,[20],>1.00E−4 Molar
same,Percent Growth,[20]; Log10 Concentration −4.0,36%
same,Percent Growth,[20]; Log10 Concentration −5.0,60%
same,Percent Growth,[20]; Log10 Concentration −6.0,95%
same,Percent Growth,[20]; Log10 Concentration −7.0,95%
same,Percent Growth,[20]; Log10 Concentration −8.0,94%
same,TGI,[21],>1.00E−4 Molar
same,Percent Growth,[21]; Log10 Concentration −4.0,12%
same,Percent Growth,[21]; Log10 Concentration −5.0,54%
same,Percent Growth,[21]; Log10 Concentration −6.0,84%
same,Percent Growth,[21]; Log10 Concentration −7.0,95%
same,Percent Growth,[21]; Log10 Concentration −8.0,94%
same,TGI,[22],>1.00E−4 Molar
same,Percent Growth,[22]; Log10 Concentration −4.0,55%
same,Percent Growth,[22]; Log10 Concentration −5.0,76%
same,Percent Growth,[22]; Log10 Concentration −6.0,105%
same,Percent Growth,[22]; Log10 Concentration −7.0,109%
same,Percent Growth,[22]; Log10 Concentration −8.0,109%
same,TGI,[23],>1.00E−4 Molar
same,Percent Growth,[23]; Log10 Concentration −4.0,49%
same,Percent Growth,[23]; Log10 Concentration −5.0,66%
same,Percent Growth,[23]; Log10 Concentration −6.0,96%
same,Percent Growth,[23]; Log10 Concentration −7.0,104%
same,Percent Growth,[23]; Log10 Concentration −8.0,106%
same,TGI,[24],>1.00E−4 Molar
same,Percent Growth,[24]; Log10 Concentration −4.0,1%
same,Percent Growth,[24]; Log10 Concentration −5.0,55%
same,Percent Growth,[24]; Log10 Concentration −6.0,90%
same,Percent Growth,[24]; Log10 Concentration −7.0,93%
same,Percent Growth,[24]; Log10 Concentration −8.0,97%
same,GI50,[25]; SK-MEL-5,5.81 µM
same,CC50,"[25]; SK-MEL-5, read-out: LC50",> 100 µM

# Source: patent publication US20100152434A1, “Protein Kinase-binding Nucleosides and Associated Methods” (priority 2007, published 2010)
